# From US5980913A, “Peptides having immunomodulatory activity” (Biochem Pharma, Inc., priority 1994, dated 1999)
# Where a SMILES comes first, the peptide text is derived from it. [ ]: non-standard residue; d: D form.
# Key:
# [1] = Stability in Human Whole Blood at 37° C., HPLC; assay type: in vitro ADME; design: half-life: dose or concentration left out as unconfirmed; settings: for HPLC AREA: human whole blood 37° C.
# Experimental: The procedures are the same as example 5 with the exceptions that human whole blood was substituted for rat whole blood, and that in Step 2, (blood incubation) aliquotes were taken at the following times: […]
# [2] = test system: C57BL/6 lymphocytes with irradiated DBA/2 cells; assay: Mixed lymphocyte reaction (MLR), 3H thymidine uptake; assay type: cell-based, mice; settings: 10^-7 M
# Excerpt: 1. Cytotoxic T Lymphocytes (CTL) Mixed Lymphocyte Reaction (MLR) and Mitogenic Response Assays
# The protocols used are described in Hudson L., Haay F., Pratical immunology, 3rd edition, Blackwell, Scientific publications, Oxford 1989, p. 158-162, and p.447.
# Lymphocytes were isolated from C57BL/6 mice and DBA/2 mice in accordance to techniques well known in the art. Cell concentration was adjusted to 10×10^6 cell/ml for each assay. The cells isolated from DBA/2 mice were irradiated with 3000 Rads.
# In a 6 well plate, each well was set up with:
# The cells were incubated for five days at 37° C. in 5% CO2, after which CTL and MLR assays were performed.
# b) Mixed Lymphocyte Reaction (MLR)
# Mixed lymphocyte reaction is an in vitro counterpart of the allograft rejection. Briefly, lymphocyte activation (mitotic response) is obtained when cells from two inbred strains or from two outbred individuals of any species are mixed in in vitro culture. To have a unidirectional response, the proliferation of either cell type may be blocked with X-ray irradiation or mitomycin C treatment. After 4 days incubation, ^3 H thymidine uptake and cytotoxicity assays (CTL) were performed. The cells were then resuspended and 100 μl of cell suspension was deposited in each well of a 96 well plate. 1 μCi of tritiated thymidine was added for 6 hours. After incubation, the cells were then harvested and counted using a Microbeta counter.
# Toxicity in vivo = assay: Toxicity in vivo
# Excerpt: peptide #1 (SEQ. ID NO:1) appears to be non-toxic.
# [3] = test system: blood cell subsets (cell surface antigens); assay: In vivo/ex vivo immunophenotyping in the blood, mice treated 4 consecutive days, blood taken on day 5; design: species or system C57BL/6 mice
# Experimental: C57BL.backslash.6 mice are treated with 0, 50, 100, 200, and 300 mg/kg of drug (in saline) for 4 consecutive days. Blood is taken by cardiac puncture on day 5, and the lymphocytes are isolated from spleen in the following manner:
# 1. Immunophenotyping (blood and spleen)
# Cell immunophenotyping is performed on blood and spleen. The following cell surface antigens are analyzed:
# CD4 (T helper/inducer, binds class II-restricted T cells);
# CD8 (cytotoxic T cells, CTL adhesion);
# MAC-1 (monocyte/macrophage);
# NK (natural killer cells);
# CD45 (all leukocytes, protein tyrosine phosphatase).
structure (smiles),measurement,setting,value
"NCCCC[C@@H](N)C(=O)N[C@@H](CC(N)=O)C(=O)N1CCC[C@H]1C(=O)N[C@@H](Cc1ccc(O)cc1)C(=O)O [PEPTIDE #5, H-(D-Lys)-Asn-Pro-Tyr-OH] (H-[dK]NPY-OH)",HPLC AREA,[1]; 0 min,2857082.5
same,HPLC AREA,[1]; 15 min,3066465
same,HPLC AREA,[1]; 30 min,3017509.5
same,HPLC AREA,[1]; 60 min,3135696.5
same,HPLC AREA,[1]; 90 min,3005211
same,HPLC AREA,[1]; 120 min,3476665.5
same,HPLC AREA,[1]; 150 min,3063052
same,HPLC AREA,[1]; 180 min,3108157
same,HPLC AREA,[1]; 210 min,3181899
same,half-life,"[1]; human, human whole blood, 37° C.",> 3.5 h
same,MLR,[2],2.1 ×
same,gross pathological observations (in words),Toxicity in vivo; in vivo,no sign of irritation
same,toxic effect (in words),Toxicity in vivo; up to 200 mg/kg,No toxic effect
same,"change of relative percentage of T cells (TCR, CD4+ and CD8+ cell surface antigen) (in words)",[3],reduced in a significant manner
same,"CD4+ CD8+ cell subset, relative percentage, MEAN","[3]; 50 mg/kg, first assay",2.03
same,"CD4+ CD8- cell subset, relative percentage, MEAN","[3]; 50 mg/kg, first assay",18.15
same,"CD4+ CD11b+ cell subset, relative percentage, MEAN","[3]; 50 mg/kg, first assay",1.18
same,"CD4+ CD11b- cell subset, relative percentage, MEAN","[3]; 50 mg/kg, first assay",22.55
same,"CD4- CD8+ cell subset, relative percentage, MEAN","[3]; 50 mg/kg, first assay",5.15
same,"CD4- CD8- cell subset, relative percentage, MEAN","[3]; 50 mg/kg, first assay",74.68
same,"CD4- CD11b+ cell subset, relative percentage, MEAN","[3]; 50 mg/kg, first assay",12.08
same,"CD4- CD11b- cell subset, relative percentage, MEAN","[3]; 50 mg/kg, first assay",64.15
same,"CD45+ CD4+ cell subset, relative percentage, MEAN","[3]; 50 mg/kg, first assay",17.00
same,"CD45+ CD4- cell subset, relative percentage, MEAN","[3]; 50 mg/kg, first assay",57.68
same,"CD45+ CD8+ cell subset, relative percentage, MEAN","[3]; 50 mg/kg, first assay",6.53
same,"CD45+ CD8- cell subset, relative percentage, MEAN","[3]; 50 mg/kg, first assay",62.48
same,"CD45- CD4+ cell subset, relative percentage, MEAN","[3]; 50 mg/kg, first assay",3.15
same,"CD45- CD4- cell subset, relative percentage, MEAN","[3]; 50 mg/kg, first assay",22.15
same,"CD45- CD8- cell subset, relative percentage, MEAN","[3]; 50 mg/kg, first assay",30.35
same,"CD45- CDE8+ cell subset, relative percentage, MEAN","[3]; 50 mg/kg, first assay",0.68
same,"Ly5(B) cell subset, relative percentage, MEAN","[3]; 50 mg/kg, first assay",57.88
same,"NK+ CD3+ cell subset, relative percentage, MEAN","[3]; 50 mg/kg, first assay",2.13
same,"NK+ CD3- cell subset, relative percentage, MEAN","[3]; 50 mg/kg, first assay",5.70
same,"NK- CD3+ cell subset, relative percentage, MEAN","[3]; 50 mg/kg, first assay",33.30
same,"NK- CD3- cell subset, relative percentage, MEAN","[3]; 50 mg/kg, first assay",58.93
same,"TCR(T) cell subset, relative percentage, MEAN","[3]; 50 mg/kg, first assay",31.53
same,"CD4+ CD8+ cell subset, relative percentage, MEAN","[3]; 50 mg/kg, second assay",0.43
same,"CD4+ CD8- cell subset, relative percentage, MEAN","[3]; 50 mg/kg, second assay",20.65
same,"CD4+ CD11b+ cell subset, relative percentage, MEAN","[3]; 50 mg/kg, second assay",0.13
same,"CD4+ CD11b- cell subset, relative percentage, MEAN","[3]; 50 mg/kg, second assay",15.38
same,"CD4- CD8+ cell subset, relative percentage, MEAN","[3]; 50 mg/kg, second assay",7.70
same,"CD4- CD8- cell subset, relative percentage, MEAN","[3]; 50 mg/kg, second assay",71.20
same,"CD4- CD11b+ cell subset, relative percentage, MEAN","[3]; 50 mg/kg, second assay",6.73
same,"CD4- CD11b- cell subset, relative percentage, MEAN","[3]; 50 mg/kg, second assay",77.78
same,"CD45+ CD4+ cell subset, relative percentage, MEAN","[3]; 50 mg/kg, second assay",18.48
same,"CD45+ CD4- cell subset, relative percentage, MEAN","[3]; 50 mg/kg, second assay",68.23
same,"CD45+ CD8+ cell subset, relative percentage, MEAN","[3]; 50 mg/kg, second assay",8.10
same,"CD45+ CD8- cell subset, relative percentage, MEAN","[3]; 50 mg/kg, second assay",79.70
same,"CD45- CD4+ cell subset, relative percentage, MEAN","[3]; 50 mg/kg, second assay",2.25
same,"CD45- CD4- cell subset, relative percentage, MEAN","[3]; 50 mg/kg, second assay",11.05
same,"CD45- CD8+ cell subset, relative percentage, MEAN","[3]; 50 mg/kg, second assay",0.03
same,"CD45- CD8- cell subset, relative percentage, MEAN","[3]; 50 mg/kg, second assay",12.15
same,"Ly5(B) cell subset, relative percentage, MEAN","[3]; 50 mg/kg, second assay",58.6
same,"NK+ CD3+ cell subset, relative percentage, MEAN","[3]; 50 mg/kg, second assay",3.00
same,"NK+ CD3- cell subset, relative percentage, MEAN","[3]; 50 mg/kg, second assay",7.88
same,"NK- CD3+ cell subset, relative percentage, MEAN","[3]; 50 mg/kg, second assay",31.05
same,"NK- CD3- cell subset, relative percentage, MEAN","[3]; 50 mg/kg, second assay",58.10
same,"TCR(T) cell subset, relative percentage, MEAN","[3]; 50 mg/kg, second assay",35.73
same,"CD4+ CD8+ cell subset, relative percentage, MEAN","[3]; 100 mg/kg, first assay",2.10
same,"CD4+ CD8- cell subset, relative percentage, MEAN","[3]; 100 mg/kg, first assay",17.90
same,"CD4+ CD11b+ cell subset, relative percentage, MEAN","[3]; 100 mg/kg, first assay",1.10
same,"CD4+ CD11b- cell subset, relative percentage, MEAN","[3]; 100 mg/kg, first assay",20.30
same,"CD4- CD8+ cell subset, relative percentage, MEAN","[3]; 100 mg/kg, first assay",6.03
same,"CD4- CD8- cell subset, relative percentage, MEAN","[3]; 100 mg/kg, first assay",73.95
same,"CD4- CD11b+ cell subset, relative percentage, MEAN","[3]; 100 mg/kg, first assay",11.03
same,"CD4- CD11b- cell subset, relative percentage, MEAN","[3]; 100 mg/kg, first assay",67.65
same,"CD45+ CD4+ cell subset, relative percentage, MEAN","[3]; 100 mg/kg, first assay",16.78
same,"CD45+ CD4- cell subset, relative percentage, MEAN","[3]; 100 mg/kg, first assay",58.75
same,"CD45+ CD8+ cell subset, relative percentage, MEAN","[3]; 100 mg/kg, first assay",7.10
same,"CD45+ CD8- cell subset, relative percentage, MEAN","[3]; 100 mg/kg, first assay",63.45
same,"CD45- CD4+ cell subset, relative percentage, MEAN","[3]; 100 mg/kg, first assay",3.25
same,"CD45- CD4- cell subset, relative percentage, MEAN","[3]; 100 mg/kg, first assay",21.23
same,"CD45- CD8- cell subset, relative percentage, MEAN","[3]; 100 mg/kg, first assay",28.38
same,"CD45- CDE8+ cell subset, relative percentage, MEAN","[3]; 100 mg/kg, first assay",1.03
